Measured values from patent publication US20230077362A1 (CORTEVA AGRISCIENCE LLC, priority 2019, published 2023).

Columns and labels:
[1] = system: Beet Armyworm (Spodoptera exigua) ("BAW"), second instar larvae; assay: Bioassay on beet armyworm (BAW), 128-well diet tray assay; type: in vivo; details: for pest or weed control at 50 µg/cm2: Spodoptera exigua, read-out: BAW rating; for BAW rating: Table ABC, species BAW, C = not tested, D = no activity noticed
In short: (§1)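 Read-out: percent larval mortality per well, averaged over 8 wells. Incubation 25° C., 14:10 L:D photoperiod, 5–7 days, trays sealed with clear adhesive cover.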

[2] = system: Cabbage Looper (Trichoplusia ni) ("CL"), second instar larvae; assay: Bioassay on cabbage looper (CL), 128-well diet tray assay; type: in vivo; details: for pest or weed control at 50 µg/cm2: Trichoplusia ni, read-out: CL rating; for CL rating: Table ABC, species CL, C = not tested, D = no activity noticed
In short: as §1

SMILES | pest or weed control at 50 µg/cm2 [1] | pest or weed control at 50 µg/cm2 [2] | BAW rating [1] | CL rating [2]
Cc1ccc(COCC(F)(F)F)c(N2C(=O)CS/C2=N\C(=O)Nc2ccc(-c3nnc(-c4ccc(OC(F)(F)F)cc4)o3)cc2F)c1 [Compound J430, (Z)-1-(2-Fluoro-4-(5-(4-(trifluoromethoxy)phenyl)-1,3,4-oxadiazol-2-yl)phenyl)-3-(3-(5-methyl-2-((2,2,2-trifluoroethoxy)methyl)phenyl)-4-oxothiazolidin-2-ylidene)urea] | 50 to 100% | 50 to 100% | – | –
CC(C)c1ccc(N(C)C)cc1N1C(=O)CS/C1=N\C(=O)Nc1ccc(-c2nnc(-c3ccc(OC(F)(F)F)cc3)o2)cc1F [Compound J431, (Z)-1-(3-(5-(Dimethylamino)-2-isopropylphenyl)-4-oxothiazolidin-2-ylidene)-3-(2-fluoro-4-(5-(4-(trifluoromethoxy)phenyl)-1,3,4-oxadiazol-2-yl)phenyl)urea] | 50 to 100% | 50 to 100% | – | –
CC(C)c1cc(F)c(N(C)C)cc1N1C(=O)CS/C1=N\C(=O)Nc1ccc(-c2nnc(-c3ccc(OC(F)(F)F)cc3)o2)cc1F [Compound J432, (Z)-1-(3-(5-(Dimethylamino)-4-fluoro-2-isopropylphenyl)-4-oxothiazolidin-2-ylidene)-3-(2-fluoro-4-(5-(4-(trifluoromethoxy)phenyl)-1,3,4-oxadiazol-2-yl)phenyl)urea] | 50 to 100% | 50 to 100% | – | –
COC(c1ccc(C)cc1N1C(=O)CS/C1=N\C(=O)Nc1ccc(-c2nnc(-c3ccc(OC(F)(F)F)cc3)o2)cc1F)C(F)(F)F (centres unmarked) [Compound J433, (Z)-1-(2-Fluoro-4-(5-(4-(trifluoromethoxy)phenyl)-1,3,4-oxadiazol-2-yl)phenyl)-3-(3-(5-methyl-2-(2,2,2-trifluoro-1-methoxyethyl)phenyl)-4-oxothiazolidin-2-ylidene)urea] | 50 to 100% | 50 to 100% | – | –
COC(C)c1ccc(C)cc1N1C(=O)CS/C1=N\C(=O)Nc1ccc(-c2nc(-c3ccc(OC(F)(F)F)cc3)no2)cc1F (centres unmarked) [Compound J434, (Z)-1-(2-Fluoro-4-(3-(4-(trifluoromethoxy)phenyl)-1,2,4-oxadiazol-5-yl)phenyl)-3-(3-(2-(1-methoxyethyl)-5-methylphenyl)-4-oxothiazolidin-2-ylidene)urea] | 50 to 100% | 50 to 100% | – | –
CC(C)c1ccc(N(C)C)cc1N1C(=O)CS/C1=N\C(=O)Nc1ccc(-c2nc(-c3ccc(OC(F)(F)F)cc3)no2)cc1F [Compound J435, (Z)-1-(3-(5-(dimethylamino)-2-isopropylphenyl)-4-oxothiazolidin-2-ylidene)-3-(2-fluoro-4-(3-(4-(trifluoromethoxy)phenyl)-1,2,4-oxadiazol-5-yl)phenyl)urea] | 50 to 100% | 50 to 100% | – | –
Cc1ccc(COCC(F)(F)Cl)c(N2C(=O)CS/C2=N\C(=O)Nc2ccc(-c3ncn(-c4ccc(OC(F)(F)F)cc4)n3)cc2C)c1 [Compound J436] | – | – | A (50-100) | A (50-100)
Cc1ccc(COCC(F)(F)Cl)c(N2C(=O)CS/C2=N\C(=O)Nc2ccc(-c3ncn(-c4ccc(OC(F)(F)F)cc4)n3)cc2F)c1 [Compound J437] | – | – | A (50-100) | A (50-100)
Cc1ccc(N2C(=O)CS/C2=N\C(=O)Nc2ccc(-c3ncn(-c4ccc(OC(F)(F)F)cc4)n3)cc2F)c(COCC(F)(F)F)c1 [Compound J438] | – | – | A (50-100) | A (50-100)
Cc1ccc(Cc2cccc(C(F)(F)F)c2)c(N2C(=O)CS/C2=N\C(=O)Nc2ccc(-c3ncn(-c4ccc(OC(F)(F)F)cc4)n3)cc2C)c1 [Compound J440, (Z)-1-(3-(5-Methyl-2-(3-(trifluoromethyl)benzyl)phenyl)-4-oxothiazolidin-2-ylidene)-3-(2-methyl-4-(1-(4-(trifluoromethoxy)phenyl)-1H-1,2,4-triazol-3-yl)phenyl)urea] | 50 to 100% | 0 to 50% | – | –
Cc1ccc(OCCC(F)(F)F)c(N2C(=O)CS/C2=N\C(=O)Nc2ccc(-n3cnc(-c4ccc(OC(F)(F)F)cc4)n3)cc2C)c1 [Compound J441, (Z)-1-(3-(5-Methyl-2-(3,3,3-trifluoropropoxy)phenyl)-4-oxothiazolidin-2-ylidene)-3-(2-methyl-4-(3-(4-(trifluoromethoxy)phenyl)-1H-1,2,4-triazol-1-yl)phenyl)urea] | 50 to 100% | 50 to 100% | – | –
Cc1ccc(COCC(F)(F)F)c(N2C(=O)CS/C2=N\C(=O)Nc2ccc(-n3cnc(-c4ccc(OC(F)(F)F)cc4)n3)cc2C)c1 [Compound J442, (Z)-1-(3-(5-Methyl-2-((2,2,2-trifluoroethoxy)methyl)phenyl)-4-oxothiazolidin-2-ylidene)-3-(2-methyl-4-(3-(4-(trifluoromethoxy)phenyl)-1H-1,2,4-triazol-1-yl)phenyl)urea] | 50 to 100% | 50 to 100% | – | –
COC(c1ccc(C)cc1N1C(=O)CS/C1=N\C(=O)Nc1ccc(-n2cnc(-c3ccc(OC(F)(F)F)cc3)n2)cc1C)C(F)(F)F (centres unmarked) [Compound J443, (Z)-1-(3-(5-Methyl-2-(2,2,2-trifluoro-1-methoxyethyl)phenyl)-4-oxothiazolidin-2-ylidene)-3-(2-methyl-4-(3-(4-(trifluoromethoxy)phenyl)-1H-1,2,4-triazol-1-yl)phenyl)urea] | 50 to 100% | 50 to 100% | – | –
COCc1ccc(N(C)C)cc1N1C(=O)CS/C1=N\C(=O)Nc1ccc(-n2cnc(-c3ccc(OC(F)(F)F)cc3)n2)cc1C [Compound J444, (Z)-1-(3-(5-(Dimethylamino)-2-(methoxymethyl)phenyl)-4-oxothiazolidin-2-ylidene)-3-(2-methyl-4-(3-(4-(trifluoromethoxy)phenyl)-1H-1,2,4-triazol-1-yl)phenyl)urea] | 50 to 100% | 50 to 100% | – | –
CCOCc1ccc(C)cc1N1C(=O)CS/C1=N\C(=O)Nc1ccc(-c2ncn(-c3ccc(S(F)(F)(F)(F)F)cc3)n2)cc1F [Compound J445] | – | – | A (50-100) | A (50-100)
Cc1ccc(COCC(F)F)c(N2C(=O)CS/C2=N\C(=O)Nc2ccc(-c3ncn(-c4ccc(S(F)(F)(F)(F)F)cc4)n3)cc2F)c1 [Compound J446] | 50 to 100% | 50 to 100% | – | –
Cc1ccc(OCCC(F)(F)F)c(N2C(=O)CS/C2=N\C(=O)Nc2ccc(-c3ncn(-c4ccc(S(F)(F)(F)(F)F)cc4)n3)cc2F)c1 [Compound J447] | 50 to 100% | 50 to 100% | – | –
Cc1ccc(N2C(=O)CS/C2=N\C(=O)Nc2ccc(-c3ncn(-c4ccc(OC(F)(F)F)cc4)n3)cc2C)c(COCC(F)(F)F)c1 [Compound J448] | – | – | A (50-100) | A (50-100)
Cc1ccc(COCC(F)(F)Cl)c(N2C(=O)CS/C2=N\C(=O)Nc2ccc(-c3ncn(-c4ccc(S(F)(F)(F)(F)F)cc4)n3)cc2F)c1 [Compound J449] | – | – | A (50-100) | A (50-100)
CC(C)c1ccc(N(C)C)cc1N1C(=O)CS/C1=N\C(=O)Nc1ccc(-c2ncn(-c3ccc(S(F)(F)(F)(F)F)cc3)n2)cc1F [Compound J450] | – | – | A (50-100) | A (50-100)
Cc1ccc(N2C(=O)CS/C2=N\C(=O)Nc2ccc(-c3ncn(-c4ccc(C(F)(F)F)cn4)n3)cc2F)c(COCC(F)(F)F)c1 [Compound J451] | – | – | A (50-100) | A (50-100)
Cc1ccc(COCC(Cl)(Cl)Cl)c(N2C(=O)CS/C2=N\C(=O)Nc2ccc(-c3ncn(-c4ccc(OC(F)(F)F)cc4)n3)cc2F)c1 [Compound J452] | – | – | A (50-100) | A (50-100)
Cc1ccc(COCC(Cl)(Cl)Cl)c(N2C(=O)CS/C2=N\C(=O)Nc2ccc(-c3ncn(-c4ccc(S(F)(F)(F)(F)F)cc4)n3)cc2F)c1 [Compound J453] | – | – | A (50-100) | A (50-100)
CCCc1ccc(C)cc1N1C(=O)CS/C1=N\C(=O)Nc1ccc(-c2ncn(-c3ccc(C(F)(F)F)cn3)n2)cc1F [Compound J454] | – | – | A (50-100) | A (50-100)
Cc1cc(COCC(F)(F)F)c(N2C(=O)CS/C2=N\C(=O)Nc2ccc(-c3ncn(-c4ccc(OC(F)(F)F)cc4)n3)cc2F)cc1C [Compound J455] | – | – | A (50-100) | A (50-100)
Cc1ccc(Cc2ccccc2)c(N2C(=O)CS/C2=N\C(=O)Nc2ccc(-c3ncn(-c4ccc(OC(F)(F)F)cc4)n3)cc2C)c1 [Compound J456, (Z)-1-(3-(2-Benzyl-5-methylphenyl)-4-oxothiazolidin-2-ylidene)-3-(2-methyl-4-(1-(4-(trifluoromethoxy)phenyl)-1H-1,2,4-triazol-3-yl)phenyl)urea] | 50 to 100% | 50 to 100% | – | –
Cc1ccc(Cc2ccccc2)c(N2C(=O)CS/C2=N\C(=O)Nc2ccc(-c3ncn(-c4ccc(OC(F)(F)F)cc4)n3)cc2F)c1 [Compound J457, (Z)-1-(3-(2-Benzyl-5-methylphenyl)-4-oxothiazolidin-2-ylidene)-3-(2-fluoro-4-(1-(4-(trifluoromethoxy)phenyl)-1H-1,2,4-triazol-3-yl)phenyl)urea] | 50 to 100% | 50 to 100% | – | –
Cc1ccc(COCC(F)(F)F)c(N2C(=O)C(Cl)(Cl)S/C2=N\C(=O)Nc2ccc(-c3ncn(-c4ccc(OC(F)(F)F)cc4)n3)cc2F)c1 [Compound J458, (Z)-1-(5,5-dichloro-3-(5-methyl-2-((2,2,2-trifluoroethoxy)methyl)phenyl)-4-oxothiazolidin-2-ylidene)-3-(2-fluoro-4-(1-(4-(trifluoromethoxy)phenyl)-1H-1,2,4-triazol-3-yl)phenyl)urea] | 50 to 100% | 50 to 100% | – | –
